This assay addresses EGFR (UniProt P00533).

Data on ten compounds can be found in the Kinase Knowledgebase extract (Sharma et al. 2016).

Sequence of EGFR (P00533 whole entry, looked up): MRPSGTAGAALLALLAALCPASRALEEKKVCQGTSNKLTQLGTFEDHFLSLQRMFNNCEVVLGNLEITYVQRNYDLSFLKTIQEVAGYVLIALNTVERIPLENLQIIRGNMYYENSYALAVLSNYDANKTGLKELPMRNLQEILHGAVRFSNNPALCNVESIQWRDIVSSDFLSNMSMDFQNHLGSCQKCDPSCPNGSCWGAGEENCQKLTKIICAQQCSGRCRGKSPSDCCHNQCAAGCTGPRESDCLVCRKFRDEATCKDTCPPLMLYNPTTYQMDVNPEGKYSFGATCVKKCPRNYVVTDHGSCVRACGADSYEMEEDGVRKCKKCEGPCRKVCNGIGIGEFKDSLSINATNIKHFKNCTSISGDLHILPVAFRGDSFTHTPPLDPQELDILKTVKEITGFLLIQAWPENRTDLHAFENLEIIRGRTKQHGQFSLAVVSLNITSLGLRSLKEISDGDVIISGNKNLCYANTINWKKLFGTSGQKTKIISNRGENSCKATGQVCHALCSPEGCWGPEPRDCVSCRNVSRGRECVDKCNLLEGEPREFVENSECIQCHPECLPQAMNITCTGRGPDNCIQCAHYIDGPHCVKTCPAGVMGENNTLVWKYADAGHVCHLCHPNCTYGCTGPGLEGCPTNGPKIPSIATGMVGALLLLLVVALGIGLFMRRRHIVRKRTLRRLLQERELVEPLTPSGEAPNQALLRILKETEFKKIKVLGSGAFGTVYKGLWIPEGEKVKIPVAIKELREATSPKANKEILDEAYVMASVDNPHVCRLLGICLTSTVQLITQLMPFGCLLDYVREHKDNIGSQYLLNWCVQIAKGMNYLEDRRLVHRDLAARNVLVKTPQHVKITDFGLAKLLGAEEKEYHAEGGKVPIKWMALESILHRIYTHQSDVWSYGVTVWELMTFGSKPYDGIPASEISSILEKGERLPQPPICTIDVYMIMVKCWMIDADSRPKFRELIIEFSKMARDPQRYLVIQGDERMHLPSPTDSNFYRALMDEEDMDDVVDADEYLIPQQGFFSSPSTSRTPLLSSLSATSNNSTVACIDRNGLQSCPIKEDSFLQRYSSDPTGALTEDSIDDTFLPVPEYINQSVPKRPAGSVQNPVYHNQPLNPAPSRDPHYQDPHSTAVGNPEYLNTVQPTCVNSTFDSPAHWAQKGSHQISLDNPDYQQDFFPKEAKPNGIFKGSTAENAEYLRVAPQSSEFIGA

By IC50 is commonly meant the concentration needed to halve the response being measured. As to `O=C(Nc1ccc(F)cc1)Nc1ncnc2nn3ccccc3c12`, the IC50 was > 10 µM.
In the case of `O=C(Nc1ccc(Br)cc1)Nc1ncnc2nn3ccccc3c12`, the IC50 was > 10 µM.
On to `O=C(Nc1ccc(C(F)(F)F)cc1)Nc1ncnc2nn3ccccc3c12`, for which the IC50 was > 10 µM.
To `O=C(Nc1cccc(C(F)(F)F)c1)Nc1ncnc2nn3ccccc3c12` belongs > 10 µM.
`c1ccc(Cc2nc3ccc(Nc4ncnc5nn6ccccc6c45)cc3[nH]2)cc1`: the half-maximal inhibitory concentration (IC50) was 1 to 10 µM.
In turn, `c1ccc2c(CNNc3ncnc4nn5ccccc5c34)c[nH]c2c1` yielded an IC50 of 1 to 10 µM.
Regarding `Nc1ncnc2nn3ccccc3c12`, the half-maximal inhibitory concentration (IC50) is > 10 µM.
Consider `N#Cc1cccc(NC(=O)Nc2ncnc3nn4ccccc4c23)c1`, for which the IC50 was > 10 µM.
`Clc1cc(Nc2ncnc3nn4ccccc4c23)ccc1OCc1ccccc1`: the IC50 is < 0.1 µM.
Regarding `O=C(Nc1cccc([N+](=O)[O-])c1)Nc1ncnc2nn3ccccc3c12`, the IC50 is > 10 µM.
